Here are results for two compounds from patent publication US20230098637A1, “PROGNOSTIC PATHWAYS FOR HIGH RISK SEPSIS PATIENTS” (InnoSIGN B.V., priority 2020, published 2023).

Entries after “also recorded” stand apart in the source; their conditions may differ.

Common to all, as to type: cell-based
Assay [1] has as its system ER cellular signaling pathway. The assay is described as follows: AR inhibitor experiment in LPS-stimulated monocytes (THP1), ER pathway activity. The following applies: THP1 monocytes cultured 24 hours with or without LPS, then with or without DHT. The method, then: (§1) FIG. 35 Schematic overview of AR inhibitor experiment. Depicts the experimental setup to determine if AR inhibitors can be used to mitigate the effect of LPS on monocytes (THP1 cells). In brief, monocyte cells (THP1) are cultured for 24 hours with or without LPS, after which the medium is changed and both conditions are subsequently cultured with or without DHT. Both LPS and DHT are anticipated to activate the AR cellular signaling pathway. In a parallel experiment, THP1 cells are first cultured for 24 hours with LPS, after which the medium is changed and the cells are cultured with one of ARCC-4, ARD-266, A-458 and bicalutamide.
(§2) FIG. 35 describes the experimental set-up used. In brief, monocyte cells (THP1) are cultured for 24 hours with or without LPS, after which the medium is changed and both conditions are subsequently cultured with or without DHT. Both LPS and DHT are anticipated to activate the AR cellular signaling pathway. In a parallel experiment, THP1 cells are first cultured for 24 hours with LPS, after which the medium is changed and the cells are cultured with one of ARCC-4, ARD-266, A-458 and bicalutamide.
(§3) All experimental conditions were subjected to cellular signaling pathways analysis.

Assay [2] deals with TGFbeta cellular signaling pathway. The assay can be described thus: AR inhibitor experiment in LPS-stimulated monocytes (THP1), TGFbeta pathway activity. The following applies: THP1 monocytes cultured 24 hours with or without LPS, then with or without DHT. The method, then: as §1, §2, §3
Assay [3] concerns HH (Hedgehog) cellular signaling pathway. The assay can be described thus: AR inhibitor experiment in LPS-stimulated monocytes (THP1), HH pathway activity. The following applies: THP1 monocytes cultured 24 hours with or without LPS, then with or without DHT. The method, then:
as §1, §2, §3

Assay [4] has as its system AR cellular signaling pathway. The assay is described as follows: AR inhibitor experiment in LPS-stimulated monocytes (THP1), AR pathway activity. The settings on record: THP1 monocytes cultured 24 hours with or without LPS, then with or without DHT. The method, then:
as §1, §2, §3

The subject of another assay is WNT pathway. The assay is described as follows: LPS stimulation of THP-1 cells, WNT pathway activity. The following applies: LPS from E. coli 10, 50, 100 ng/ml, 24 hours, vs control. The method, then:
(§4) To study the inflammation process we stimulated the monocytic THP-1 cells (ATCC® TIB-202™) using 3 different concentrations of LPS originated from E. coli ([…], 10 ng/ml, 50 ng/ml and 100 ng/ml) into culture medium (DMEM, supplemented with 10% FBS, 1% glutamax and 1% pen strep at 37° C. 5% CO2.) of THP-1 for 24 hours. After stimulation cells were harvested and RNA was extracted using the RNeasy mini kit (Qiagen, 74104). qPCR was performed using the Philips Research OncoSignal platform. […] The activation of the AR and TGFBeta pathways was also seen in sepsis samples confirms the role of these pathways in inflammation.

For another assay, the system named is TGFBeta pathway. The assay can be described thus: LPS stimulation of THP-1 cells, TGFBeta pathway activity. The settings on record: LPS from E. coli 10, 50, 100 ng/ml, 24 hours, vs control. The method, then:
as §4

For another assay, the system named is AR pathway. The assay can be described thus: LPS stimulation of THP-1 cells, AR pathway activity (qPCR OncoSignal). The settings on record: LPS from E. coli 10, 50, 100 ng/ml, 24 hours, vs control. The method, then: as §4
Background: Quantitative PCR measures a nucleic acid by following its amplification.

Another assay deals with FOXO pathway. The assay is described as follows: LPS stimulation of THP-1 cells, FOXO pathway activity. The settings on record: LPS from E. coli 10, 50, 100 ng/ml, 24 hours, vs control. The method, then: as §4

Consider `C[C@]12CCC(=O)C[C@@H]1CC[C@@H]1[C@@H]2CC[C@]2(C)[C@@H](O)CC[C@@H]12` [DHT], for which the “ER cellular signaling pathway activity” value in assay [1] is recorded as “not substantially affected”. Moreover, in assay [2], the “TGFbeta cellular signaling pathway activity” value is given as “did not increase”. For the same compound, the “HH cellular signaling pathway activity” value in assay [3] was “not substantially affected”. The “AR cellular signaling pathway activity” value in assay [4] is recorded as “increase”.

As to lipopolysaccharide [LPS], the “ER cellular signaling pathway activity” value in assay [1] is “not substantially affected”. Further, the WNT pathway activity result with WNT pathway is “increased”. Moreover, the “TGFbeta cellular signaling pathway activity” value in assay [2] is “increased”. The TGFBeta pathway activity entry in the assay on TGFBeta pathway is recorded as “increased”. Also, the “HH cellular signaling pathway activity” value in assay [3] was “not substantially affected”. The “AR cellular signaling pathway activity” value in assay [4] was “able to stimulate; also recorded: increase”. Moreover, the AR pathway activity result in the assay with AR pathway is reported as “increased”. Moreover, the FOXO pathway activity entry with FOXO pathway is “increased”.
